The text below walks through data of US12122816B2, “Long acting peptide tyrosine tyrosine (PYY) analogs and methods of use” (Intarcia Therapeutics, Inc., priority 2020, dated 2024).

Starred links: 1 amine or outer side, 2 acyl side, 3 side chain; linkers in the order of their positions; H or OH if unused. Residues, ends and D or L forms follow the SMILES beside them. Groups on a side chain read outwards from the residue. *: point of attachment. C20 diacid = O=C(O)CCCCCCCCCCCCCCCCCCC(=O)*; γGlu = O=C(O)[C@H](CCC(=O)[*:2])N[*:1]

Series [1] in a line: In vitro stability in subcutaneous (SC) tissue homogenates. The conditions noted are these: subcutaneous tissue homogenate, pH 7.4; human SC tissue homogenate 1.0 mg protein/mL, 10 mcM peptide, 37° C.; read-out: (H)SC tissue stability t½ (converted). The format is in vitro ADME. The procedure: In vitro incubations in subcutaneous (SC) tissue homogenates were used to characterize the ability of peptides to resist pre-systemic degradation by proteases and peptidases after SC administration. […] Peptides with high SC bioavailability are stable in this assay, while peptides with low SC bioavailability are unstable in this assay.
Human SC tissue was homogenized in cold 25 mM HEPES buffer (pH 7.4, 10-fold volume based on sample weight), and then filtered through a double layer of cheesecloth. The filtrates were aliquoted, flash frozen on a methanol/dry ice bath and stored at −80° C. The protein concentration of each pooled batch was determined using the BCA protein assay. Thawed stocks of human SC tissue homogenates were diluted to 1.0 mg protein/mL in 25 mM HEPES buffer (pH 7.4) and aliquoted into a 96-well plate. The diluted SC homogenates were pre-warmed for 10 minutes at 37° C. […] Reactions were maintained at 37° C. in a shaking water bath. […] Quenched samples were centrifuged at 2178×g for 10 min and then a portion of the supernatants were transferred to a clean 96-well plate and diluted 1:10 with water. Samples were analyzed by UPLC-MS/MS.

The target in another series is T1, human Y2 receptor (Homo sapiens, UniProt P49146).
T1 sequence (P49146 1-381): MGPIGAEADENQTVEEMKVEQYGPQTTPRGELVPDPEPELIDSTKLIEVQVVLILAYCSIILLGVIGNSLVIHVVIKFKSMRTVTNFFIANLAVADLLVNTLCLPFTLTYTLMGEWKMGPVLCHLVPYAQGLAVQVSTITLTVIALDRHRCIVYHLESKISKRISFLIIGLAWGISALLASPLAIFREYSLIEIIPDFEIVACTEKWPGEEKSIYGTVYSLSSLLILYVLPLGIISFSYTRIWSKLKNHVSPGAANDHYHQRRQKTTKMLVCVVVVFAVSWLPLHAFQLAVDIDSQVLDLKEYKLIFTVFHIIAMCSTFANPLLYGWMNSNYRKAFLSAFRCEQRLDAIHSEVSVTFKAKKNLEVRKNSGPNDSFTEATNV
Put plainly: NPY receptor functional assay (cAMP, HEK-CNG cells, ACTOne membrane potential dye). Conditions: NPY2R pEC50, HEK-CNG cells; standard PYY(3-36); species (human or rat) not given. The format is cell-based. The gist of the method:
(§1)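 HEK-CNG cells stably expressing each human receptor; peptides added in triplicate for 50 minutes at room temperature, with agonism read as decreased isoproterenol-induced membrane potential dye signal (final/initial read).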

The target in a further series is T2, human Y5 receptor (Homo sapiens, UniProt Q15761).
T2 sequence (Q15761 1-445): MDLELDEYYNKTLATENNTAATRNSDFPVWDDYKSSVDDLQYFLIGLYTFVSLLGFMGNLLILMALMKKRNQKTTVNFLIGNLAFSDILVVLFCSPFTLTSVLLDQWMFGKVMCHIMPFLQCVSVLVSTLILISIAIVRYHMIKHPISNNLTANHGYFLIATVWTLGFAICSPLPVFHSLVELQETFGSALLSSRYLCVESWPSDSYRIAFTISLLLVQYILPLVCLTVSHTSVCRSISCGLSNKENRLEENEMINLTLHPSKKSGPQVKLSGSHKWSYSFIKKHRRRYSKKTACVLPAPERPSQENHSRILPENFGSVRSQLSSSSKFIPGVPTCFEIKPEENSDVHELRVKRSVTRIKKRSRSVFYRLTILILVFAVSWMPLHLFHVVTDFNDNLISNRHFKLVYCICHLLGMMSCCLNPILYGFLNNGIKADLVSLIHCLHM
The description is as above. The class given is cell-based. Conditions: NPY5R pEC50, HEK-CNG cells; standard NPY; species (human or rat) not given. The gist of the method:
as §1

Series [2] is described as follows: In vitro metabolic stability in kidney brush border membranes (kBBM). The class given is in vitro ADME. The conditions noted are these: pH 7.4, human kBBM 50 mcg protein/mL, 1 mcM peptide, 37° C., read-out: hkBBM t½ (converted). The procedure: In vitro incubations in kidney brush border membrane (kBBM) preparations were used to characterize the ability of peptides to resist degradation by proteases and peptidases in the systemic circulation. kBBM were selected because they contain a high concentration of a diverse set of proteases and peptidases, many of which are present throughout the body.
Brush border membranes from rat and human kidney tissue were prepared via centrifugation and stored at −70° C. Thawed stocks of rat or human kBBM were diluted to the appropriate concentration in 25 mM HEPES buffer (pH 7.4) containing 1% casein and aliquoted into a 96-well plate. The kBBM solutions were pre-warmed for 10 minutes at 37° C. […] The final concentration of kBBM in each incubation was 50 mcg protein/mL. Reactions were maintained at 37° C. in a shaking water bath. […] Quenched samples were centrifuged at 2178×g for 10 min and then a portion of the supernatants were transferred to a clean 96-well plate and diluted 1:1 with water. Samples were analyzed by UPLC-MS/MS.

The target of another series is human Y4 receptor (Homo sapiens, UniProt P50391). Put plainly: NPY receptor functional assay (cAMP, HEK-CNG cells, ACTOne membrane potential dye). The conditions noted are these: standard PP, species (human or rat) not given. The class given is cell-based. The essentials:
as §1

human Y4 receptor, sequence (P50391 whole entry): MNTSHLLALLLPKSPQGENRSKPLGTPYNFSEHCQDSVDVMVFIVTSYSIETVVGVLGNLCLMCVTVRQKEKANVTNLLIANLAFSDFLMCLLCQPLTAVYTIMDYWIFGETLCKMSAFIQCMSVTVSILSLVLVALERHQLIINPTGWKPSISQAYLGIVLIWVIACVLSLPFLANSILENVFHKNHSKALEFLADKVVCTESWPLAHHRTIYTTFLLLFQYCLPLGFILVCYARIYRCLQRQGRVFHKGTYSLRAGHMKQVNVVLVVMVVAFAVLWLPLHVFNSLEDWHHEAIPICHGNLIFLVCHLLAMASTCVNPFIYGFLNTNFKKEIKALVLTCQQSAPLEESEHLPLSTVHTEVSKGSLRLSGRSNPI

Regarding `CC(C)C[C@H](NC(=O)[C@H](CC(=O)O)NC(=O)[C@H](CCCCNC(=O)CC[C@H](NC(=O)CC[C@H](NC(=O)CCCCCCCCCCCCCCCCCCC(=O)O)C(=O)O)C(=O)O)NC(=O)[C@H](Cc1ccc(O)cc1)NC(=O)[C@H](Cc1ccc(O)cc1)NC(=O)[C@H](CCCNC(=N)N)NC(=O)[C@H](CC(N)=O)NC(=O)[C@H](Cc1c[nH]c2ccccc12)NC(=O)[C@H](CCC(=O)O)NC(=O)[C@H](CCCCN)NC(=O)[C@@H]1CCCN1C(=O)[C@H](CO)NC(=O)[C@H](C)NC(=O)[C@H](CC(=O)O)NC(=O)[C@H](CCC(=O)O)NC(=O)CNC(=O)[C@@H]1CCCN1C(=O)[C@H](CCCCN)NC(=O)[C@H](CCC(=O)O)NC(=O)[C@@H]1CCCN1C(=O)[C@H](CCCCN)NC(=O)[C@@H]1CCCN1)C(=O)N[C@@H](CCCNC(=N)N)C(=O)N[C@@H](Cc1c[nH]cn1)C(=O)N[C@@H](Cc1ccc(O)cc1)C(=O)N[C@@H](CC(C)C)C(=O)N[C@@H](CC(N)=O)C(=O)N[C@@H](Cc1c[nH]c2ccccc12)C(=O)N[C@@H](CC(C)C)C(=O)N[C@H](C(=O)N[C@@H](CCCNC(=N)N)C(=O)N[C@@H](CCC(N)=O)C(=O)N[C@@H](CCCNC(=N)N)C(=O)N[C@@H](Cc1ccccc1)C(N)=O)[C@@H](C)O` [Compound A29], the half-life at 10 mcM in series [1] is 1.1 h. In addition, the figures for the EC50 at human Y2 receptor and on human Y5 receptor were 0.0126 nM and 1 nM, respectively. Also, in series [2], the half-life at 1 mcM was 8.7 h.
The like results for `CC(C)C[C@H](NC(=O)[C@H](CC(=O)O)NC(=O)[C@H](CCCCNC(=O)CC[C@H](NC(=O)CC[C@H](NC(=O)CCCCCCCCCCCCCCCCCCC(=O)O)C(=O)O)C(=O)O)NC(=O)[C@H](Cc1ccc(O)cc1)NC(=O)[C@H](Cc1ccc(O)cc1)NC(=O)[C@H](CCCNC(=N)N)NC(=O)[C@H](CC(=O)O)NC(=O)[C@H](Cc1c[nH]c2ccccc12)NC(=O)[C@H](CCC(=O)O)NC(=O)[C@H](CCCCN)NC(=O)[C@@H]1CCCN1C(=O)[C@H](CO)NC(=O)[C@H](C)NC(=O)[C@H](CC(=O)O)NC(=O)[C@H](CCC(=O)O)NC(=O)CNC(=O)[C@@H]1CCCN1C(=O)[C@H](CCCCN)NC(=O)[C@H](CCC(=O)O)NC(=O)[C@@H]1CCCN1C(=O)[C@H](CCCCN)NC(=O)[C@@H]1CCCN1)C(=O)N[C@@H](CCCNC(=N)N)C(=O)N[C@@H](Cc1c[nH]cn1)C(=O)N[C@@H](Cc1ccc(O)cc1)C(=O)N[C@@H](CC(C)C)C(=O)N[C@@H](CC(N)=O)C(=O)N[C@@H](Cc1c[nH]c2ccccc12)C(=O)N[C@@H](CC(C)C)C(=O)N[C@H](C(=O)N[C@@H](CCCNC(=N)N)C(=O)N[C@@H](CCC(N)=O)C(=O)N[C@@H](CCCNC(=N)N)C(=O)N[C@@H](Cc1ccccc1)C(N)=O)[C@@H](C)O` [Compound A34] were, in that order, 4.9 h, 0.0631 nM, 1.58 nM and 6.7 h.
For `CC(C)C[C@H](NC(=O)[C@H](CC(=O)O)NC(=O)[C@H](CCCCN)NC(=O)[C@H](Cc1ccc(O)cc1)NC(=O)[C@H](Cc1ccc(O)cc1)NC(=O)[C@H](CCCNC(=N)N)NC(=O)[C@H](CC(N)=O)NC(=O)[C@H](Cc1c[nH]c2ccccc12)NC(=O)[C@H](CCC(=O)O)NC(=O)[C@H](CCCCN)NC(=O)[C@@H]1CCCN1C(=O)[C@H](CO)NC(=O)[C@H](C)NC(=O)[C@H](CC(=O)O)NC(=O)[C@H](CCCCNC(=O)CC[C@H](NC(=O)CC[C@H](NC(=O)CCCCCCCCCCCCCCCCCCC(=O)O)C(=O)O)C(=O)O)NC(=O)CNC(=O)[C@@H]1CCCN1C(=O)[C@H](CCCCN)NC(=O)[C@H](CCC(=O)O)NC(=O)[C@@H]1CCCN1C(=O)[C@H](CCCCN)NC(=O)[C@@H]1CCCN1)C(=O)N[C@@H](CCCNC(=N)N)C(=O)N[C@@H](Cc1c[nH]cn1)C(=O)N[C@@H](Cc1ccc(O)cc1)C(=O)N[C@@H](CC(C)C)C(=O)N[C@@H](CC(N)=O)C(=O)N[C@@H](Cc1c[nH]c2ccccc12)C(=O)N[C@@H](CC(C)C)C(=O)N[C@H](C(=O)N[C@@H](CCCNC(=N)N)C(=O)N[C@@H](CCC(N)=O)C(=O)N[C@@H](CCCNC(=N)N)C(=O)N[C@@H](Cc1ccccc1)C(N)=O)[C@@H](C)O` [Compound A27] (H-PKPEKPGK([γGlu-γGlu-C20 diacid])DASPKEWNRYYKDLRHYLNWLTRQRF-NH2; N-terminus assumed) the same measures were 0.2 h, 0.02 nM, 1.26 nM and 10 h.
For the compound `CC(C)C[C@H](NC(=O)[C@H](CC(=O)O)NC(=O)[C@H](CCCCNC(=O)CC[C@H](NC(=O)CC[C@H](NC(=O)CCCCCCCCCCCCCCCCCCC(=O)O)C(=O)O)C(=O)O)NC(=O)[C@H](Cc1ccc(O)cc1)NC(=O)[C@H](Cc1ccc(O)cc1)NC(=O)[C@H](CCCNC(=N)N)NC(=O)[C@H](CC(N)=O)NC(=O)[C@H](Cc1c[nH]c2ccccc12)NC(=O)[C@H](CCC(=O)O)NC(=O)[C@H](CCC(=O)O)NC(=O)[C@@H]1CCCN1C(=O)[C@H](CO)NC(=O)[C@H](C)NC(=O)[C@H](CC(=O)O)NC(=O)[C@H](CCCCN)NC(=O)CNC(=O)[C@@H]1CCCN1C(=O)[C@H](C)NC(=O)[C@H](CCC(=O)O)NC(=O)[C@@H]1CCCN1C(=O)[C@H](CCCCN)NC(=O)[C@@H]1CCCN1)C(=O)N[C@@H](CCCNC(=N)N)C(=O)N[C@@H](Cc1c[nH]cn1)C(=O)N[C@@H](Cc1ccc(O)cc1)C(=O)N[C@@H](CC(C)C)C(=O)N[C@@H](CC(N)=O)C(=O)N[C@@H](Cc1c[nH]c2ccccc12)C(=O)N[C@@H](CC(C)C)C(=O)N[C@H](C(=O)N[C@@H](CCCNC(=N)N)C(=O)N[C@@H](CCC(N)=O)C(=O)N[C@@H](CCCNC(=N)N)C(=O)N[C@@H](Cc1ccccc1)C(N)=O)[C@@H](C)O` [Compound A54], the “NPY4R pEC50” value on human Y4 receptor was “inactive”. In addition, the values for the EC50 on human Y2 receptor and on human Y5 receptor were 20 nM and 10 nM, respectively.
